Results on three molecules are retold here after ChEMBL document CHEMBL1146539, “Homopseudopteroxazole, a new antimycobacterial diterpene alkaloid from Pseudopterogorgia elisabethae” (2003).

In brackets after ≈: the same amount, converted by molar mass.

Usually MIC stands for the lowest concentration found to suppress growth. Low readings indicate inhibition by little substance, high ones a need for much substance.

The subject of this test is Mycobacterium tuberculosis. Briefly: Antimycobacterial activity against Mycobacterium tuberculosis H37Rv. As to conditions: for MIC: Mycobacterium tuberculosis, H37Rv. The format is functional.

As to `CC(C)=CCC[C@H](C)[C@H]1CC[C@H](C)c2c1cc(C)c1ncoc21`, the “inhibition (INH)” value stood at 66% and the MIC is 12.5 µg/mL (≈ 40.1 µM).

For the molecule `CCCCCc1nc2c(C)c3c4c(c2o1)[C@@H](C)CC[C@@H]4[C@@H](C)C[C@H]3C=C(C)C` [HOMOPSEUDOPTEROXAZOLE], the “inhibition (INH)” value is recorded as 80% and the MIC amounted to 12.5 µg/mL (≈ 32.9 µM).

For the molecule `CC(C)=C[C@@H]1C[C@H](C)[C@H]2CC[C@H](C)c3c2c1c(C)c1ncoc31` [PSEUDOPTEROXAZOLE], the “inhibition (INH)” value is given as 97% and the MIC was determined as 12.5 µg/mL (≈ 40.4 µM).
